Several values for one entry are separate records, joined by “and”; a condition that tells them apart may be missing. Equal values may be shown once.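 Following 48 hours of exposure in 96-well plates, responses at five concentrations were used to interpolate endpoints linearly. GI50: concentration for 50% inhibition of growth. TGI marks complete inhibition of growth.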

The text below walks through data of PubChem BioAssay (NCI).

Some test systems named below: OVCAR-8 ovarian; SNB-75 CNS; LOX IMVI melanoma; UACC-62 melanoma; KM12 colon; MDA-MB-435; SR leukemia; OVCAR-3 ovarian.
Holding throughout (assay): NCI-60 cell line screen, 48 h

For the molecule `COC[C@H](NC(=O)c1cnc(C)s1)C(=O)N[C@@H](COC)C(=O)N[C@@H](Cc1ccccc1)C(=O)[C@@]1(C)CO1`, the GI50 in the assay with OVCAR-8 ovarian is greater than 93.2 µM; in the assay on SNB-75 CNS, 22.3 µM; in the assay with LOX IMVI melanoma, 17.8 µM; in the assay on UACC-62 melanoma, 15.8 µM; in the assay with KM12 colon, 21.4 µM; with MDA-MB-435, 12.9 µM. In addition, the GI50 with SR leukemia was greater than 61.4 µM; in the assay with OVCAR-3 ovarian it was 27.5 µM. The TGI is greater than 100 µM in the assay on OVCAR-8 ovarian; greater than 100 µM with SNB-75 CNS; 38.4 µM in the assay with LOX IMVI melanoma; 39 µM in the assay with UACC-62 melanoma; 56 µM with KM12 colon; 40 µM in the assay on MDA-MB-435. The values for the TGI in the assay with SR leukemia and with OVCAR-3 ovarian were greater than 100 µM and greater than 86.3 µM, respectively.
With `Cc1ccc(CNc2ccc3nc(CCC4CCCCC4)[nH]c3c2)cc1`, the GI50 was 3.21 µM in the assay on OVCAR-8 ovarian; 1.75 µM with SNB-75 CNS; 1.74 µM in the assay on LOX IMVI melanoma; 1.74 µM with UACC-62 melanoma; 2.83 µM in the assay on KM12 colon; 2.09 µM in the assay with MDA-MB-435. Besides, the GI50 in the assay on SR leukemia is 2.91 µM; with OVCAR-3 ovarian, 3.06 µM. Besides, the TGI was greater than 100 µM with OVCAR-8 ovarian; 5.25 µM in the assay with SNB-75 CNS; 3.19 µM in the assay with LOX IMVI melanoma; 3.4 µM in the assay on UACC-62 melanoma; 9.05 µM with KM12 colon; 4.85 µM with MDA-MB-435. In addition, the TGI in the assay with SR leukemia is 8.74 µM; in the assay on OVCAR-3 ovarian, 11.4 µM.
With `CC1SC(c2ccccc2Cl)N(NC(=O)C(O)c2ccccc2)C1=O` (configuration not stated), the GI50 is greater than 100 µM in the assay on OVCAR-8 ovarian; greater than 100 µM with SNB-75 CNS; greater than 100 µM with LOX IMVI melanoma; 45 µM in the assay on UACC-62 melanoma; greater than 100 µM in the assay with KM12 colon; greater than 100 µM with MDA-MB-435. Further, the figures for the GI50 with SR leukemia and in the assay with OVCAR-3 ovarian were 40 µM and 35.4 µM, respectively. The TGI with OVCAR-8 ovarian, in the assay with SNB-75 CNS, in the assay on LOX IMVI melanoma, in the assay with UACC-62 melanoma, in the assay with KM12 colon and with MDA-MB-435 was greater than 100 µM in each case. The TGI with SR leukemia and in the assay on OVCAR-3 ovarian was greater than 100 µM throughout.
As to `Cn1ncc(Cl)c1-c1cc(C(=O)N[C@H](CN)Cc2cccc(F)c2)sc1Cl`, the GI50 was 3.82 µM and 8.34 µM in the assay with OVCAR-8 ovarian; 0.139 µM and 0.131 µM in the assay on SNB-75 CNS; 1.08 µM and 2.85 µM in the assay with LOX IMVI melanoma; 1.07 µM and 1.46 µM with UACC-62 melanoma; 0.467 µM and 0.835 µM in the assay with KM12 colon; 1.31 µM and 2.36 µM with MDA-MB-435. In addition, the GI50 was 0.749 µM and 1.54 µM in the assay on SR leukemia; 1.18 µM and 2.8 µM in the assay on OVCAR-3 ovarian. In addition, the TGI is > 7.9 µM and 23.8 µM with OVCAR-8 ovarian; 1.48 µM and 2.56 µM in the assay on SNB-75 CNS; 2.91 µM and 11.3 µM in the assay on LOX IMVI melanoma; > 5.59 µM and 11.6 µM in the assay on UACC-62 melanoma; 3.51 µM and 8.31 µM in the assay with KM12 colon; > 5.99 µM and 12.7 µM in the assay with MDA-MB-435. Also, the TGI is 3.11 µM and 4.74 µM in the assay with SR leukemia; > 10 µM and 15.4 µM with OVCAR-3 ovarian.
Take `COc1cnc2c(c1)C(=O)c1c-2n(CCCN2CCCC2)c(=O)c2cc([N+](=O)[O-])ccc12`: the GI50 in the assay on OVCAR-8 ovarian was 0.0929 µM; in the assay with SNB-75 CNS, 0.0457 µM; in the assay on LOX IMVI melanoma it was less than 0.01 µM; in the assay on UACC-62 melanoma, 0.0153 µM; in the assay with KM12 colon, 0.139 µM; in the assay on MDA-MB-435 it was 0.0647 µM. Also, the GI50 in the assay on SR leukemia is less than 0.01 µM; in the assay with OVCAR-3 ovarian, 0.0586 µM. Besides, the TGI with OVCAR-8 ovarian stood at 5.85 µM; in the assay on SNB-75 CNS, 14.3 µM; in the assay with LOX IMVI melanoma, 0.112 µM; with UACC-62 melanoma it was 0.631 µM; with KM12 colon, 1.77 µM; in the assay on MDA-MB-435, 1.13 µM. The TGI in the assay with SR leukemia worked out at 1.34 µM; in the assay on OVCAR-3 ovarian it was 0.901 µM.
Consider `CCOC(=O)C(=Cc1ccc(C#N)cc1)C(=O)OCC`, for which the GI50 is 3.54 µM with OVCAR-8 ovarian; 2.17 µM in the assay on SNB-75 CNS; 1.8 µM in the assay with LOX IMVI melanoma; 1.99 µM in the assay with UACC-62 melanoma; 2.86 µM with KM12 colon; 1.98 µM in the assay on MDA-MB-435. Further, the GI50 in the assay with SR leukemia is 1.31 µM; in the assay with OVCAR-3 ovarian, 2.01 µM. The TGI is 11.4 µM with OVCAR-8 ovarian; 10.5 µM in the assay with SNB-75 CNS; 3.87 µM in the assay on LOX IMVI melanoma; 4.54 µM in the assay with UACC-62 melanoma; 8.8 µM in the assay with KM12 colon; 4.79 µM in the assay with MDA-MB-435. In addition, the TGI in the assay with SR leukemia is greater than 100 µM; with OVCAR-3 ovarian it was 4.39 µM.
For `COc1ccc2c(c1)CCC1C2CC[C@@]2(C)C1CC[C@@H]2NC(=O)Cc1ccc(O)c(O)c1` (some centres not stated), the GI50 is 8.71 µM in the assay on OVCAR-8 ovarian; 3.44 µM in the assay on SNB-75 CNS; 8.15 µM with LOX IMVI melanoma; 4.14 µM with UACC-62 melanoma; 5.47 µM with KM12 colon; 4.63 µM in the assay with MDA-MB-435. Moreover, the results for the GI50 with SR leukemia and in the assay on OVCAR-3 ovarian were 3.46 µM and 3.7 µM, respectively. For the same molecule, the TGI in the assay with OVCAR-8 ovarian is 30.8 µM; with SNB-75 CNS, 12.5 µM; in the assay on LOX IMVI melanoma it was 20.6 µM; in the assay with UACC-62 melanoma, 14.8 µM; in the assay on KM12 colon, 21.7 µM; with MDA-MB-435, 17.2 µM. For the same molecule, the TGI in the assay on SR leukemia stood at 18.7 µM; in the assay with OVCAR-3 ovarian it was 19.2 µM.
